Laboratory results: patent publication US11667602B2, “Compounds and their use” (AstraZeneca AB, priority 2020, dated 2023)

Target: T1, human RXFP1 (Homo sapiens, UniProt Q9HBX9)
T1 sequence (Q9HBX9 1-757): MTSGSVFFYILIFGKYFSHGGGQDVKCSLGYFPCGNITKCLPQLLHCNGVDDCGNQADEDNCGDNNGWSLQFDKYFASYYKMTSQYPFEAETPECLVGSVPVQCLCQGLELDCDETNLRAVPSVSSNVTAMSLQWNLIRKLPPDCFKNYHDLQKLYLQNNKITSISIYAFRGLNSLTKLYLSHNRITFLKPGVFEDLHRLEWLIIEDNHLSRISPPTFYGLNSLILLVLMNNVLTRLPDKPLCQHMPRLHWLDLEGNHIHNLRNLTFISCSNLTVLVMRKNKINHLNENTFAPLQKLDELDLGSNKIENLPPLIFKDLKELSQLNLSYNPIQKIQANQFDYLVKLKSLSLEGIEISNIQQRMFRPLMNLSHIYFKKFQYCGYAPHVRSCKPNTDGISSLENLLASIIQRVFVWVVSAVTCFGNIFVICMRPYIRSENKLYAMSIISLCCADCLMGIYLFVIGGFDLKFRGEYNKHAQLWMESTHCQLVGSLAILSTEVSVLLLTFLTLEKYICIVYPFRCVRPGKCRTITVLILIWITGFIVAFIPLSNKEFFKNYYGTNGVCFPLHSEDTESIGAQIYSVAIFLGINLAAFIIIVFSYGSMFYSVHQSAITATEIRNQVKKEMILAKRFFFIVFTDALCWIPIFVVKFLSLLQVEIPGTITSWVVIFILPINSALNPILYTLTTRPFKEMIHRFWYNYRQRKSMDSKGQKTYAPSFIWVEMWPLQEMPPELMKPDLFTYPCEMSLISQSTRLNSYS
Test: RXFP1 Hu cAMP (Test A)
Format: cell-based
Set-up: expressed in transfected cells; host or cells: Jump-In T-REx CHO-K1 cells (ThermoFisher), induced with 10 ng/ml doxycycline for 24 h
Conditions: RXFP1 Hu cAMP; for EC50: read-out: Test A EC50
In short: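 Competitive HTRF cAMP readout (2 h, room temperature) in CHO-K1 cells stably expressing human RXFP1, induced with 10 ng/ml doxycycline for 24 h; IBMX 0.5 mM final.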

| SMILES | Test A Sinf [%] | EC50 [nM] |
| --- | --- | --- |
| COc1cc(C#N)c(O[C@H]2CC[C@@](C)(C(=O)O)CC2)cc1C(=O)Nc1cc(Cl)ccc1C(=O)NCC1(c2ccccc2)CC1 [Example 158] | 118 | 110 |
| COc1cc(C#N)c(O[C@H]2CC[C@@](C)(C(=O)O)CC2)cc1C(=O)Nc1cc(Cl)ccc1C(=O)NC[C@H]1C[C@@H](C)C1 [Example 159] | 125 | 78 |
| COc1cc(C#N)c(O[C@H]2CC[C@@](C)(C(=O)O)CC2)cc1C(=O)Nc1cc(Cl)ccc1C(=O)NCC1(F)CCC1 [Example 160] | 125 | 160 |
| COc1cc(C#N)c(O[C@H]2CC[C@@](C)(C(=O)O)CC2)cc1C(=O)Nc1cc(Cl)ccc1C(=O)NC12CC(C1)C2 [Example 161] | 170 | 130 |
| COc1cc(C#N)c(O[C@H]2CC[C@@](C)(C(=O)O)CC2)cc1C(=O)Nc1cc(Cl)ccc1C(=O)N[C@H](C)C(C)(C)F [Example 162] | 107 | 69 |
| CCC(C)(C)NC(=O)c1ccc(Cl)cc1NC(=O)c1cc(O[C@H]2CC[C@@](C)(C(=O)O)CC2)c(C#N)cc1OC [Example 163] | 151 | 67 |
| COc1cc(C#N)c(O[C@H]2CC[C@@](C)(C(=O)O)CC2)cc1C(=O)Nc1cc(Cl)ccc1C(=O)NCC(C)(C)F [Example 164] | 142 | 130 |
| COc1cc(C#N)c(O[C@H]2CC[C@@](C)(C(=O)O)CC2)cc1C(=O)Nc1cc(Cl)ccc1C(=O)NC(C)(C)C1CC1 [Example 165] | 111 | 12 |
| COc1cc(C#N)c(O[C@H]2CC[C@@](C)(C(=O)O)CC2)cc1C(=O)Nc1cc(C)ccc1C(=O)NCc1cccc(F)c1 [Example 166, (1s,4s)-4-(2-Cyano-5-((2-((3-fluorobenzyl)carbamoyl)-5-methylphenyl)carbamoyl)-4-methoxyphenoxy)-1-methylcyclohexane-1-carboxylic acid] | 137 | 580 |
| CCC(CC)CNC(=O)c1ccc(C)cc1NC(=O)c1cc(O[C@H]2CC[C@@](C)(C(=O)O)CC2)c(C#N)cc1OC [Example 167] | 147 | 120 |
| CCC(CC)NC(=O)c1ccc(C)cc1NC(=O)c1cc(O[C@H]2CC[C@@](C)(C(=O)O)CC2)c(C#N)cc1OC [Example 168] | 121 | > 2200 |
| COc1cc(C#N)c(O[C@H]2CC[C@@](C)(C(=O)O)CC2)cc1C(=O)Nc1cc(C)ccc1C(=O)N[C@H]1CC[C@H](C)CC1 [Example 169] | 111 | 270 |
| COc1cc(C#N)c(O[C@H]2CC[C@@](C)(C(=O)O)CC2)cc1C(=O)Nc1cc(C)ccc1C(=O)N[C@H](C)C(C)C [Example 170] | 136 | 190 |
| COc1cc(C#N)c(O[C@H]2CC[C@@](C)(C(=O)O)CC2)cc1C(=O)Nc1cc(C)ccc1C(=O)N[C@H]1C[C@@H](C)C1 [Example 171] | 119 | 440 |
| COc1cc(C#N)c(O[C@H]2CC[C@@](C)(C(=O)O)CC2)cc1C(=O)Nc1cc(C)ccc1C(=O)NCC1(F)CCC1 [Example 172] | 125 | 980 |
| COc1cc(C#N)c(O[C@H]2CC[C@@](C)(C(=O)O)CC2)cc1C(=O)Nc1cc(C)ccc1C(=O)NC12CC(C1)C2 [Example 173] | 126 | 190 |
| COc1cc(C#N)c(O[C@H]2CC[C@@](C)(C(=O)O)CC2)cc1C(=O)Nc1cc(C)ccc1C(=O)NCC1(C)CC1 [Example 174] | 132 | 110 |
| COc1cc(F)c(Cn2nccc2C(=O)O)cc1C(=O)N[C@@H]1[C@H]2CC[C@H](C2)[C@@H]1C(=O)Nc1cccc(S(=O)(=O)C(F)(F)F)c1 [Example 221, 1-(2-Fluoro-4-methoxy-5-(((1S,2R,3S,4R)-3-((3-((trifluoromethyl)sulfonyl)phenyl)carbamoyl)bicyclo[2.2.1]heptan-2-yl)carbamoyl)benzyl)-1H-pyrazole-5-carboxylic acid] | – | > 40000 |
| COc1cc(F)c(Cn2ccc(C(=O)O)n2)cc1C(=O)N[C@@H]1[C@H]2CC[C@H](C2)[C@@H]1C(=O)Nc1cccc(S(=O)(=O)C(F)(F)F)c1 [Example 222, 1-(2-Fluoro-4-methoxy-5-(((1S,2R,3S,4R)-3-((3-((trifluoromethyl)sulfonyl)phenyl)carbamoyl)bicyclo[2.2.1]heptan-2-yl)carbamoyl)benzyl)-1H-pyrazole-3-carboxylic acid] | – | > 40000 |
| COc1cc(F)c(-c2ccc(C(=O)O)c(N(C)C)c2)cc1C(=O)N[C@@H]1[C@H]2CC[C@H](C2)[C@@H]1C(=O)Nc1cccc(S(=O)(=O)C(F)(F)F)c1 [Example 239] | 100 | 130 |
| COc1cc(F)c(-c2ccc(OCCCC(=O)O)cc2)cc1C(=O)N[C@@H]1[C@H]2CC[C@H](C2)[C@@H]1C(=O)Nc1cccc(S(=O)(=O)C(F)(F)F)c1 [Example 251, 4-((2′-Fluoro-4′-methoxy-5′-(((1S,2R,3S,4R)-3-((3-((trifluoromethyl)sulfonyl)phenyl)carbamoyl)bicyclo[2.2.1]heptan-2-yl)carbamoyl)-[1,1′-biphenyl]-4-yl)oxy)butanoic acid] | 101 | 33 |
| COc1cc(F)c(-c2cc(C)c(C(=O)O)c(C)c2)cc1C(=O)N[C@@H]1[C@H]2CC[C@H](C2)[C@@H]1C(=O)Nc1cccc(S(=O)(=O)C(F)(F)F)c1 [Example 252, 2′-Fluoro-4′-methoxy-3,5-dimethyl-5′-(((1S,2R,3S,4R)-3-((3-((trifluoromethyl)sulfonyl)phenyl)carbamoyl)bicyclo[2.2.1]heptan-2-yl)carbamoyl)-[1,1′-biphenyl]-4-carboxylic acid] | 86 | 780 |
| COc1cc(-c2cc(C(=O)N[C@@H]3[C@H]4CC[C@H](C4)[C@@H]3C(=O)Nc3cccc(S(=O)(=O)C(F)(F)F)c3)c(OC)cc2F)ccc1CCC(=O)O [Example 259, 3-(2′-Fluoro-3,4′-dimethoxy-5′-(((1S,2R,3S,4R)-3-((3-((trifluoromethyl)sulfonyl)phenyl)carbamoyl)bicyclo[2.2.1]heptan-2-yl)carbamoyl)-[1,1′-biphenyl]-4-yl)propanoic acid] | 97 | 58 |
| COc1cc(F)c(-c2ccc(C(N)(CO)CO)cc2)cc1C(=O)N[C@@H]1[C@H]2CC[C@H](C2)[C@@H]1C(=O)Nc1cccc(S(=O)(=O)C(F)(F)F)c1 [Example 265, (1R,2S,3R,4S)-3-(4′-(2-Amino-1,3-dihydroxypropan-2-yl)-6-fluoro-4-methoxy-[1,1′-biphenyl]-3-carboxamido)-N-(3-((trifluoromethyl)sulfonyl)phenyl)bicyclo[2.2.1]heptane-2-carboxamide] | 78 | – |
| COc1cc(F)c(C2CCC(C(=O)O)CC2)cc1C(=O)NC1C2CCC(C2)C1C(=O)Nc1cccc(S(=O)(=O)C(F)(F)F)c1 [Example 268, (1S,4s)-4-(2-Fluoro-4-methoxy-5-(((1S,2R,3S,4R)-3-((3-((trifluoromethyl)sulfonyl)phenyl)carbamoyl)bicyclo[2.2.1]heptan-2-yl)carbamoyl)phenyl)cyclohexane-1-carboxylic acid] | 84 | 860 |
| COc1cc(F)c([C@H]2CC[C@H](C(=O)O)CC2)cc1C(=O)N[C@@H]1[C@H]2CC[C@H](C2)[C@@H]1C(=O)Nc1cccc(S(=O)(=O)C(F)(F)F)c1 [Example 269, (1R,4r)-4-(2-fluoro-4-methoxy-5-(((1S,2R,3S,4R)-3-((3-((trifluoromethyl)sulfonyl)phenyl)carbamoyl)bicyclo[2.2.1]heptan-2-yl)carbamoyl)phenyl)cyclohexane-1-carboxylic acid] | 44 | 2900 |
| COc1cc(F)c(-c2ccc(C(=O)O)cc2)cc1C(=O)N[C@@H]1[C@H]2CC[C@H](C2)[C@@H]1C(=O)NCC(C)(C)C [Example 304] | 95 | – |
| COc1cc(F)c(-c2cccc(C(=O)O)c2)cc1C(=O)N[C@@H]1CCC[C@@H]1C(=O)Nc1cccc(S(=O)(=O)C(F)(F)F)c1 [Example 317, 2′-Fluoro-4′-methoxy-5′-(((1R,2S)-2-((3-((trifluoromethyl)sulfonyl)phenyl)carbamoyl)cyclopentyl)carbamoyl)-[1,1′-biphenyl]-3-carboxylic acid] | 75 | 1200 |
| COc1cc(F)c(-c2nnc(CCC(=O)O)s2)cc1C(=O)N[C@H]1C(C(=O)Nc2cccc(S(=O)(=O)C(F)(F)F)c2)[C@@H]2CC[C@H]1C2 (stereo partly drawn) [Example 322, 3-(5-(2-Fluoro-4-methoxy-5-(((1S,2R,3S,4R)-3-((3-((trifluoromethyl)sulfonyl)phenyl)carbamoyl)bicyclo[2.2.1]heptan-2-yl)carbamoyl)phenyl)-1,3-,4-thiadiazol-2-yl)propanoic acid] | 107 | 800 |
